Structures are written as SMILES.

Our source for the IC50 and EC50 values is patent US8288379B2, “Thia-triaza-cyclopentazulenes” (Boehringer Ingelheim International GmbH, priority 2009, dated 2012).

The target in one experiment is T1, FRAP1 (mTOR) kinase (Homo sapiens, UniProt P42345).
T1 construct: purchased Invitrogen PV4753
Description: Inhibition of mTOR-induced p-4E-BP1 phosphorylation (TR-FRET mTOR Activity Kit; Invitrogen). The format is biochemical. Conditions: 400 nM GFP-4E-BP1 substrate, ~150 ng/mL mTOR, one hour at room temperature. The source says:
Inhibition of mTOR-Induced p-4E-BP1 Phosphorylation (TR-FRET mTOR Activity Kit; Invitrogen)
• GFP-4E-BP1 substrate; Invitrogen order no. PV4759 • Lanthascreen Tb-anti-p4E-BP1 (pThr46) Antibody Kit; Invitrogen order no. PV4758 • FRAP1 (mTOR) kinase; Invitrogen order no. […] Preparation of Reagents: Note: Thaw and keep mTOR, the substrate, ATP, and the antibody on ice prior to making working dilutions. Working dilutions of these components can be kept at room temperature for short periods of time the day of use. 1. Add 2 ml of 5× Assay Buffer to 8 ml water to prepare 10 ml of 1× Assay Buffer. Note: The concentration of 1× Assay Buffer is 50 mM HEPES pH 7.5, 0.01% Polysorbate 20, 1 mM EGTA, and 10 mM MnCl2. 2. Prepare Antibody/EDTA Solution by first adding 2.75 n1 of Tb-anti p4E-BP1 Antibody to 2397 n1 of LanthaScreen™ TR-FRET Dilution Buffer. Then, add 100 n1 of 0.5 M EDTA. 3. Prepare 4× Substrate/Enzyme Solution by first adding 72 n1 of GFP-4E-BP1 (22 nM) to 926 n1 of 1× Assay Buffer. Then, add 1.6 n1 of mTOR (0.45 mg/mL). 4. Prepare ATP Solution by adding 3.2 n1 of 10 mM ATP to 1997 n1 of 1× Assay Buffer. Serial Dilution of Inhibitors (16 Point Curve): Note: It is recommended that inhibitors be serially diluted in DMSO, then diluted to a 4× working concentration with 1× Assay Buffer. The below procedure describes dilution of compounds in a 96-well format prior to transfer to a 384-well format for kinase assays. This procedure calls for dilution of the compounds in 2 adjacent columns of a 96-well plate, which upon transfer to a single column of a 384-well plate with an 8-channel pipette will align the samples in order of concentration. 1. Dispense 40 n1 of DMSO to two adjacent columns of a 96 well plate per compound (e.g. columns 1 and 2). 2. Add 10 n1 of inhibitor stock (10 mM) to the first well of the first column (A1) and mix. 3. Remove 10 n1 from A1 and transfer to the adjacent well in the next column (B1) and mix. 4. Remove 10 n1 from B1 and transfer to the next well in the first column (B2) and mix. 5. Repeat this dilution pattern through well H1 and leave the last well (H2) as DMSO only. 6. Remove 4 n1 of diluted compounds and add to 96 n1 of 1× Assay Buffer in a 96-well plate making 4× compound dilutions. Kinase Reaction: 1. Add 2.5 μl of 4× compound dilutions from the first column of the 96-well plate to every other well of column 1 of a 384-well plate with an 8-channel pipette. Repeat for columns 2 and 3. 2. Add 2.5 n1 of 4× compound dilutions from the second column of the 96-well plate to the empty wells of column 1 of the 384-well plate with an 8-channel pipette. Repeat for columns 2 and 3. Note: This procedure aligns the compound dilutions in order of concentration. 3. Add 2.5 n1 of 4× Enzyme/Substrate Solution to all columns 1-6. 4. Preincubate for 30 min. at RT (shaker). 5. Add 5 n1 of ATP Solution to all wells to start reactions. 6. Shake the assay plate on a plate shaker for 30 seconds. 7. Incubate the assay plate for one hour at room temperature (20-25° C.). Stop Step and Fluorescence Detection: 1. Add 10 n1 of Antibody/EDTA Solution to each well in columns 1-9. 2. Shake the assay plate on a plate shaker for 30 seconds. 3. Incubate the assay plate for one hour at room temperature (20-25° C.). 4. Measure the GFP (FRET) and terbium (reference) emission signals on a fluorescence plate reader (e.g. Perkin Elmer Envision). Data Analysis: 1. Calculate the emission ratio for each sample by dividing the GFP (FRET) signal by the terbium (reference) signal. 2. Plot the concentration of each compound versus the emission ratio. Determine the concentration of compound required to reach 50% of the maximum signal (IC50). Determination of IC50 values can be obtained by curve fitting (sigmoidal dose response, variable slope) using Prism software from GraphPad). Inhibition of Proliferation: CyQuant PC-3 Description: […]
(In general: In TR-FRET formats the signal depends on donor and acceptor labels being close together.)

For a further experiment, the system named is PC-3 cells. Description: Inhibition of proliferation: CyQuant PC-3. The class given is cell-based. Conditions: 72 h; PC-3 human prostate carcinoma cells, incubated with compounds for 3 days, CyQuant NF DNA dye. As for the experimental part: • GFP-4E-BP1 substrate; Invitrogen order no. PV4759 • Lanthascreen Tb-anti-p4E-BP1 (pThr46) Antibody Kit; Invitrogen order no. PV4758 • FRAP1 (mTOR) kinase; Invitrogen order no. […] Preparation of Reagents: Note: Thaw and keep mTOR, the substrate, ATP, and the antibody on ice prior to making working dilutions. Working dilutions of these components can be kept at room temperature for short periods of time the day of use. 1. Add 2 ml of 5× Assay Buffer to 8 ml water to prepare 10 ml of 1× Assay Buffer. Note: The concentration of 1× Assay Buffer is 50 mM HEPES pH 7.5, 0.01% Polysorbate 20, 1 mM EGTA, and 10 mM MnCl2. 2. Prepare Antibody/EDTA Solution by first adding 2.75 n1 of Tb-anti p4E-BP1 Antibody to 2397 n1 of LanthaScreen™ TR-FRET Dilution Buffer. Then, add 100 n1 of 0.5 M EDTA. 3. Prepare 4× Substrate/Enzyme Solution by first adding 72 n1 of GFP-4E-BP1 (22 nM) to 926 n1 of 1× Assay Buffer. Then, add 1.6 n1 of mTOR (0.45 mg/mL). 4. Prepare ATP Solution by adding 3.2 n1 of 10 mM ATP to 1997 n1 of 1× Assay Buffer. Serial Dilution of Inhibitors (16 Point Curve): Note: It is recommended that inhibitors be serially diluted in DMSO, then diluted to a 4× working concentration with 1× Assay Buffer. The below procedure describes dilution of compounds in a 96-well format prior to transfer to a 384-well format for kinase assays. This procedure calls for dilution of the compounds in 2 adjacent columns of a 96-well plate, which upon transfer to a single column of a 384-well plate with an 8-channel pipette will align the samples in order of concentration. 1. Dispense 40 n1 of DMSO to two adjacent columns of a 96 well plate per compound (e.g. columns 1 and 2). 2. Add 10 n1 of inhibitor stock (10 mM) to the first well of the first column (A1) and mix. 3. Remove 10 n1 from A1 and transfer to the adjacent well in the next column (B1) and mix. 4. Remove 10 n1 from B1 and transfer to the next well in the first column (B2) and mix. 5. Repeat this dilution pattern through well H1 and leave the last well (H2) as DMSO only. 6. Remove 4 n1 of diluted compounds and add to 96 n1 of 1× Assay Buffer in a 96-well plate making 4× compound dilutions. Kinase Reaction: 1. Add 2.5 μl of 4× compound dilutions from the first column of the 96-well plate to every other well of column 1 of a 384-well plate with an 8-channel pipette. Repeat for columns 2 and 3. 2. Add 2.5 n1 of 4× compound dilutions from the second column of the 96-well plate to the empty wells of column 1 of the 384-well plate with an 8-channel pipette. Repeat for columns 2 and 3. Note: This procedure aligns the compound dilutions in order of concentration. 3. Add 2.5 n1 of 4× Enzyme/Substrate Solution to all columns 1-6. 4. Preincubate for 30 min. at RT (shaker). 5. Add 5 n1 of ATP Solution to all wells to start reactions. 6. Shake the assay plate on a plate shaker for 30 seconds. 7. Incubate the assay plate for one hour at room temperature (20-25° C.). Stop Step and Fluorescence Detection: 1. Add 10 n1 of Antibody/EDTA Solution to each well in columns 1-9. 2. Shake the assay plate on a plate shaker for 30 seconds. 3. Incubate the assay plate for one hour at room temperature (20-25° C.). 4. Measure the GFP (FRET) and terbium (reference) emission signals on a fluorescence plate reader (e.g. Perkin Elmer Envision). Data Analysis: 1. Calculate the emission ratio for each sample by dividing the GFP (FRET) signal by the terbium (reference) signal. 2. Plot the concentration of each compound versus the emission ratio. Determine the concentration of compound required to reach 50% of the maximum signal (IC50). Determination of IC50 values can be obtained by curve fitting (sigmoidal dose response, variable slope) using Prism software from GraphPad). Inhibition of Proliferation: CyQuant PC-3 Description:
The CyQuant NF assay is based on measurement of cellular DNA content via fluorescent dye binding. Because cellular DNA content is highly regulated, it is closely proportional to cell number. […]

T1 sequence (P42345 1360-2549 limits assumed): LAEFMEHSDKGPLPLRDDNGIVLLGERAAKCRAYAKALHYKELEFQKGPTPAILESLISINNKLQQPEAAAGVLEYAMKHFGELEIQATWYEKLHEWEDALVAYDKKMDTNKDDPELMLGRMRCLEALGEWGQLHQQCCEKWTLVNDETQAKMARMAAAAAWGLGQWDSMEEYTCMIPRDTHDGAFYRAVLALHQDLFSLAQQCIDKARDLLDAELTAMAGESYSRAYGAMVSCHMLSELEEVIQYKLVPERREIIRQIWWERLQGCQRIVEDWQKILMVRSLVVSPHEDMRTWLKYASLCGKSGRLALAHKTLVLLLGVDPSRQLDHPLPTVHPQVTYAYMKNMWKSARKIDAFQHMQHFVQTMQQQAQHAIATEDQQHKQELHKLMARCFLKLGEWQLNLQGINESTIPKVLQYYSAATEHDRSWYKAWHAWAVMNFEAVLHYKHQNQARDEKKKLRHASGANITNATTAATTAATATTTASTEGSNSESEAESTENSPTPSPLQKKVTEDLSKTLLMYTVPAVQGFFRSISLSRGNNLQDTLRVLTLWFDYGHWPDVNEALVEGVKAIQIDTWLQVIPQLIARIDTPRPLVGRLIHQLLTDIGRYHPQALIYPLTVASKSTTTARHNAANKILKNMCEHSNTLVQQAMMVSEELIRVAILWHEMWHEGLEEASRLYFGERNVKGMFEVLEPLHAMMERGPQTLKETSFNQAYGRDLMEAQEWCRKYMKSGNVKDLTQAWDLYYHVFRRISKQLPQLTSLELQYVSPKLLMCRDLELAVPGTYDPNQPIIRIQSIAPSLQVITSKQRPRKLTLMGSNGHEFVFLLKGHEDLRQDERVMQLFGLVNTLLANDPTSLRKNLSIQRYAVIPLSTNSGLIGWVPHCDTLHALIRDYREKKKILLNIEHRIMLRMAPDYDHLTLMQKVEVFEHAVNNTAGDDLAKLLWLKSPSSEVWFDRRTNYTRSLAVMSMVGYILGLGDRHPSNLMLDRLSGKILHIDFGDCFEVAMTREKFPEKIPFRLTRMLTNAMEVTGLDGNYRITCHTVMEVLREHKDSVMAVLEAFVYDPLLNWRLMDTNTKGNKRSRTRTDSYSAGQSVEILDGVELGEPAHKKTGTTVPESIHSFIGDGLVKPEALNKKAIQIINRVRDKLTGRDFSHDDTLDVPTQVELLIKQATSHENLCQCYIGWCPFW

Broadly, the IC50 is the point on the concentration scale where inhibition reaches its midpoint. Lower therefore signals higher potency. In general, EC50 refers to the concentration that produces a half-maximal response. Regarding `COCCn1nc(-c2ccc(N)nc2)c2c1-c1sc(NC(=O)N(C)C)nc1CCC2` [Example B-51], the IC50 against FRAP1 (mTOR) kinase is 187 nM. In the experiment with PC-3 cells, the EC50 is 523 nM.

`CCNc1ccc(-c2nn(-c3ccccc3CC)c3c2CCCc2nc(NC(C)=O)sc2-3)cn1` [Example B-79]: at FRAP1 (mTOR) kinase, the IC50 is 65 nM. Further, the EC50 in the experiment with PC-3 cells is 62 nM.

For the molecule `NCC(=O)Nc1nc2c(s1)-c1c(c(-c3ccc(N)nc3)nn1-c1ccccc1F)CCC2` [Example B-101], the midpoint of inhibition on FRAP1 (mTOR) kinase, the IC50, lay at 22 nM. Further, the EC50 in the experiment on PC-3 cells came out at 96 nM.

Turning to `CC(=O)Nc1nc2c(s1)-c1c(c(-c3ccc(N)nc3)nn1-c1ccccc1Br)CCC2` [Example B-63, N-[3-(6-Amino-pyridin-3-yl)-1-(2-bromo-phenyl)-1,4,5,6-tetrahydro-9-thia-1,2,7-triaza-cyclopenta[e]azulen-8-yl]-acetamide], the IC50 against FRAP1 (mTOR) kinase turned out to be 27 nM. The EC50 in the experiment on PC-3 cells was found to be 143 nM.

`CNc1ccc(-c2nn(C3CCN(C4CC4)CC3)c3c2CCCc2nc(NC(=O)N(C)C)sc2-3)cn1` [Example B-57] came in with an IC50 on FRAP1 (mTOR) kinase of 70 nM. Besides, the EC50 in the experiment on PC-3 cells was found to be 147 nM.

`CCNc1ccc(-c2nn(-c3ccccc3C)c3c2CCCc2nc(NC(=O)CCc4nccn4C)sc2-3)cn1` [Example B-72] showed an IC50 on FRAP1 (mTOR) kinase of 84 nM. Moreover, in the experiment with PC-3 cells, the EC50 turned out to be 298 nM.

As to `CC(=O)Nc1nc2c(s1)-c1c(c(-c3ccc(N)nc3)nn1C(C)C)CCC2` [Example B-66, N-[3-(6-Amino-pyridin-3-yl)-1-isopropyl-1,4,5,6-tetrahydro-9-thia-1,2,7-triaza-cyclopenta[e]azulen-8-yl]-acetamide], at FRAP1 (mTOR) kinase, 12 nM corresponded to half-maximal inhibition (IC50). Besides, in the experiment with PC-3 cells, the EC50 turned out to be 90 nM.

Regarding `CNc1ccc(-c2nn(C3CCCOC3)c3c2CCCc2nc(NC(C)=O)sc2-3)cn1` (stereo not shown) [Example B-83, N-[3-(6-Methylamino-pyridin-3-yl)-1-(tetrahydro-pyran-3-yl)-1,4,5,6-tetrahydro-9-thia-1,2,7-triaza-cyclopenta[e]azulen-8-yl]-acetamide], the IC50 on FRAP1 (mTOR) kinase was determined as 65 nM. The EC50 with PC-3 cells amounted to 41 nM.

At FRAP1 (mTOR) kinase, `CCNc1ccc(-c2nn(-c3ccccc3C)c3c2CCCc2nc(NC(C)=O)sc2-3)cn1` [Example B-07, N-[3-(6-Ethylamino-pyridin-3-yl)-1-o-tolyl-1,4,5,6-tetrahydro-9-thia-1,2,7-triaza-cyclopenta[e]azulen-8-yl]-acetamide] gave an IC50 of 55 nM. Further, in the experiment with PC-3 cells, the EC50 came out at 128 nM.

`CN(C)CC(=O)Nc1nc2c(s1)-c1c(c(-c3ccc(N)nc3)nn1-c1ccccc1F)CCC2` [Example E-17, N-[3-(6-Amino-pyridin-3-yl)-1-(2-fluoro-phenyl)-1,4,5,6-tetrahydro-9-thia-1,2,7-triaza-cyclopenta[e]azulen-8-yl]-2-dimethylamino-acetamide]: on FRAP1 (mTOR) kinase, the IC50 is 65 nM. In the experiment with PC-3 cells, the EC50 turned out to be 171 nM.

In turn, `CCn1nc(-c2ccc(NC)nc2)c2c1-c1sc(NC(=O)N(C)C)nc1CCC2` [Example B-48] registered an IC50 against FRAP1 (mTOR) kinase of 451 nM. In addition, in the experiment with PC-3 cells, the EC50 is 710 nM.

On to `CCCn1nc(-c2ccc(N)nc2)c2c1-c1sc(NC(=O)N(C)C)nc1CCC2` [Example B-33], for which, on FRAP1 (mTOR) kinase, the IC50 amounted to 116 nM. Further, the EC50 in the experiment on PC-3 cells came out at 310 nM.

On FRAP1 (mTOR) kinase, `CC(C)n1nc(-c2ccc(N)nc2)c2c1-c1sc(NC(=O)N(C)C)nc1CCC2` [Example B-29] registered an IC50 of 200 nM. For the same molecule, in the experiment with PC-3 cells, the EC50 came out at 276 nM.

`CNC(=O)Nc1nc2c(s1)-c1c(c(-c3ccc(N)nc3)nn1-c1ccccc1C)CCC2` [Example B-148, 1-[3-(6-Amino-pyridin-3-yl)-1-o-tolyl-1,4,5,6-tetrahydro-9-thia-1,2,7-triaza-cyclopenta[e]azulen-8-yl]-3-methyl-urea] registered an IC50 against FRAP1 (mTOR) kinase of 15 nM. Also, in the experiment with PC-3 cells, the EC50 amounted to 104 nM.

At FRAP1 (mTOR) kinase, `CNc1ccc(-c2nn(C(C)C)c3c2CCCc2nc(NC(C)=O)sc2-3)cn1` [Example B-05, N-[1-Isopropyl-3-(6-methylamino-pyridin-3-yl)-1,4,5,6-tetrahydro-9-thia-1,2,7-triaza-cyclopenta[e]azulen-8-yl]-acetamide] gave an IC50 of 24 nM. For the same molecule, in the experiment with PC-3 cells, the EC50 was 95 nM.

At FRAP1 (mTOR) kinase, `CC(C)n1ncc2c1-c1scnc1CCC2` [Example C-08, 1-Isopropyl-1,4,5,6-tetrahydro-9-thia-1,2,7-triaza-cyclopent[e]azulene] showed an IC50 of 2440 nM.
